Starred links: 1 amine or outer side, 2 acyl side, 3 side chain; linkers in the order of their positions; H or OH if unused. Non-standard residues stand in square brackets, D forms with d. Residues, ends and D or L forms follow the SMILES beside them. ξ: configuration not given here. *: point of attachment. X3 = CCc1cc(OC)ccc1-c1ccc(CC(N*)C(=S)NC(CCCc2ccccc2)C(N)=O)cc1; Leu(5,5,5,5',5',5'-F6) = N[C@@H](CC(C(F)(F)F)C(F)(F)F)C(=O)O; X4 = CCc1cc(OC)ccc1-c1ccc(CC(CNC(CCCc2ccccc2F)C(N)=O)N*)cc1; ξBip(2'-Et-4'-OMe) = CCc1cc(OC)ccc1-c1ccc(CC(N)C(=O)O)cc1; X1 = O=C(C(CCCc1ccc(C(F)(F)F)cc1F)N[*:1])[*:2]; ξNva(5-(3-Cl-Ph)) = NC(CCCc1cccc(Cl)c1)C(=O)O; ξbishPhe(2-F) = NC(CCCc1ccccc1F)C(=O)O; ξαMePhe(2-F) = CC(N)(Cc1ccccc1F)C(=O)O; X2 = O=C(C(CCCc1ccccc1Cl)N[*:1])[*:2]; aThr = C[C@H](O)[C@H](N)C(=O)O; Ac3c = NC1(C(=O)O)CC1; Aib = CC(C)(N)C(=O)O
Legend:
human glucagon receptor = target: T1, human glucagon receptor (Homo sapiens, UniProt P47871); assay: In vitro human glucagon antagonist activity (inhibition of cAMP production) in CHO/human glucagon R cells; assay type: cell-based; conditions: with saturated concentration of glucagon peptide
T1 construct: The full-length cDNA was cloned in pcDNA3.1 (Invitrogen); expressed in transfected cells

DPP IV = DPP IV (Homo sapiens, UniProt P27487); assay: Stability against DPP IV enzyme; assay type: in vitro ADME; conditions: 37° C.; for % degradation of peptidomimetics in 24 h when incubated with DPP-IV enzyme: 2 μM peptidomimetic; for half-life at 2 μM: DPP IV enzyme, pH 7.8, 2 μM peptidomimetic, read-out: half-life (t1/2) when incubated with DPP-IV enzyme
Method: (§1) Reactions were terminated by the addition of TFA/H2O (15 mL, 10% (v/v)). […] The column was equilibrated with TFA/H20, at a flow rate of 1 mL/min.

[1] = Stability in human plasma; assay type: in vitro ADME; conditions: 2 μM peptidomimetic, pooled human plasma, 37° C.; for half-life at 2 μM: pH 7.8, read-out: half-life (t1/2) when incubated with human plasma
Method: as §1

[2] = Stability in simulated gastric fluid; assay type: in vitro ADME; conditions: 2 μM peptidomimetic, simulated gastric fluid pH 1.5, 37° C.; for half-life at 2 μM: read-out: half-life (t1/2) when incubated with simulated gastric fluid
Method: as §1

[3] = Stability in simulated intestinal fluid; assay type: in vitro ADME; conditions: 2 μM peptidomimetic, simulated intestinal fluid pH 7.5, 37° C.; for half-life at 2 μM: read-out: half-life (t1/2) when incubated with simulated intestinal fluid
Method: as §1

[4] = Stability in liver microsomes; assay type: in vitro ADME; conditions: 2 μM peptidomimetic, human liver microsomes, 37° C.; for half-life at 2 μM: pH 7.8, read-out: half-life (t1/2) when incubated with liver microsomes
Method: as §1

Chain of DPP IV (P27487 whole entry, species assumed): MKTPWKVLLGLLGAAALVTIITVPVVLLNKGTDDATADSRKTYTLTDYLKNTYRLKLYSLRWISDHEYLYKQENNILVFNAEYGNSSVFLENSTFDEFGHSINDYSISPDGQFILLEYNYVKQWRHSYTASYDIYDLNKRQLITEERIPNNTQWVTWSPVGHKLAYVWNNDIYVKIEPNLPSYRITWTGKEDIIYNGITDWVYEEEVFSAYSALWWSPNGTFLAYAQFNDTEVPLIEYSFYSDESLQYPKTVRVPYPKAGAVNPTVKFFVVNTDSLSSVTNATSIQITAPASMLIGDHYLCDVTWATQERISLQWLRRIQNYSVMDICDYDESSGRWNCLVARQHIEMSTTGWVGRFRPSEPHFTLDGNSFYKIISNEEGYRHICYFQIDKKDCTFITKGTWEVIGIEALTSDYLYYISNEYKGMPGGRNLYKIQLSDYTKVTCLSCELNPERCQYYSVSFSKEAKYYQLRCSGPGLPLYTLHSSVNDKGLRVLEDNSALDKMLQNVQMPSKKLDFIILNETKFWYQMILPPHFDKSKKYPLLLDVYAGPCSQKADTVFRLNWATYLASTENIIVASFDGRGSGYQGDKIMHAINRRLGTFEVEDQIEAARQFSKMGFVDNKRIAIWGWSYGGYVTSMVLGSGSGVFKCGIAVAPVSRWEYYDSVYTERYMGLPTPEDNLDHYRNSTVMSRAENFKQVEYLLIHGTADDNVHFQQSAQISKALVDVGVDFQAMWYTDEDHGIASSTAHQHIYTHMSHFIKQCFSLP
T1 sequence (P47871 26-477): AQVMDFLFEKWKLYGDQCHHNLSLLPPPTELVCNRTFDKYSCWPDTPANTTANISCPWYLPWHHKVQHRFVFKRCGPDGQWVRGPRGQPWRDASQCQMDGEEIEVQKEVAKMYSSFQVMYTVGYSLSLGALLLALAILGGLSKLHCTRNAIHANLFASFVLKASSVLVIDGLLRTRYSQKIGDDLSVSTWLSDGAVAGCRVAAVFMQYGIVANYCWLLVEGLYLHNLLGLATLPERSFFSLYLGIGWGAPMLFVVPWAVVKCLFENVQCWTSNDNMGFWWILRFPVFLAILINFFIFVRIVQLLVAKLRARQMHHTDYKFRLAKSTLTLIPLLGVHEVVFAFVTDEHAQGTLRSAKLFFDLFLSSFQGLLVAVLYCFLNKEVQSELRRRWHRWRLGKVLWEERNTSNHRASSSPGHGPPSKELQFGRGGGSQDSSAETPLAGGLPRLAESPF

Structure (SMILES) | Human Glucagon receptor antagonistic activity shown as inhibition of cAMP production of Glucagon peptide (human glucagon receptor; 1 nM test compound) [pmol/ml/μg prt] | Human Glucagon receptor antagonistic activity shown as inhibition of cAMP production of Glucagon peptide (human glucagon receptor; 10 nM test compound) [pmol/ml/μg prt] | Human Glucagon receptor antagonistic activity shown as inhibition of cAMP production of Glucagon peptide (human glucagon receptor; 100 nM test compound) [pmol/ml/μg prt] | Human Glucagon receptor antagonistic activity shown as inhibition of cAMP production of Glucagon peptide (human glucagon receptor; 1 μM test compound) [pmol/ml/μg prt] | Human Glucagon receptor antagonistic activity shown as inhibition of cAMP production of Glucagon peptide (human glucagon receptor; 10 μM test compound) [pmol/ml/μg prt] | % degradation of peptidomimetics in 24 h when incubated with DPP-IV enzyme (DPP IV) [%] | half-life at 2 μM (DPP IV) [min] | % degradation of peptidomimetics in 24 h when incubated with human plasma [1] [%] | half-life at 2 μM [1] [min] | half-life (t1/2) when incubated with simulated gastric fluid [2] | % degradation of peptidomimetics in 24 h when incubated with simulated gastric fluid [2] [%] | half-life (t1/2) when incubated with simulated intestinal fluid [3] | % degradation of peptidomimetics in 24 h when incubated with simulated intestinal fluid [3] [%] | % degradation of peptidomimetics in 24 h when incubated with liver microsomes [4] [%] | half-life at 2 μM [4] [min] | half-life (t1/2) when incubated with human plasma [1] | half-life at 2 μM [2] [min] | half-life at 2 μM [3] [min] | half-life (t1/2) when incubated with liver microsomes [4]
CCc1cc(OC)ccc1-c1ccc(CC(NC(=O)[C@H](CC(=O)O)NC(=O)[C@H](CO)NC(=O)[C@@H](NC(=O)[C@H](Cc2ccccc2)NC(=O)[C@@H](NC(=O)CNC(=O)[C@H](CCC(N)=O)NC(=O)C(C)(C)NC(=O)[C@@H](N)Cc2c[nH]cn2)[C@@H](C)O)[C@@H](C)O)C(=O)NC(CCCc2ccc(C(F)(F)F)cc2F)C(N)=O)cc1 (stereo partly drawn) [compound 65] (H-H[Aib]QGTFTSD[ξBip(2'-Et-4'-OMe)][X1]-NH2) | 10 ± 0.12 | 8 ± 0.02 | 6 ± 0.04 | 4 ± 0.05 | 1 ± 0.02 | 76 | 540 | 78 | 480 | (8) h | 14 | (6) h | 43 | 80 | 60 |  |  |  | 
CCc1cc(OC)ccc1-c1ccc(CC(NC(=O)[C@H](CC(=O)O)NC(=O)[C@H](CO)NC(=O)[C@@H](NC(=O)C(C)(Cc2ccccc2F)NC(=O)[C@@H](NC(=O)CNC(=O)[C@H](CC(C(F)(F)F)C(F)(F)F)NC(=O)C(C)(C)NC(=O)[C@H](Cc2c[nH]cn2)NC(C)=O)[C@@H](C)O)[C@@H](C)O)C(=O)NC(CCCc2ccccc2F)C(N)=O)cc1 (stereo partly drawn) [compound 212] (Ac-H[Aib][Leu(5,5,5,5',5',5'-F6)]GT[ξαMePhe(2-F)]TSD[ξBip(2'-Et-4'-OMe)][ξbishPhe(2-F)]-NH2) | 10 ± 0.12 | 8 ± 0.02 | 6 ± 0.04 | 4 ± 0.05 | 1 ± 0.02 | 77 |  | 80 |  |  | 100 |  | 100 | 100 | 30 | (9) h | 30 | 30 | 
CCc1cc(OC)ccc1-c1ccc(CC(NC(=O)[C@H](CC(=O)O)NC(=O)[C@H](CO)NC(=O)[C@@H](NC(=O)C(C)(Cc2ccccc2F)NC(=O)[C@@H](NC(=O)CNC(=O)C(CCC#N)NC(=O)C(C)(C)NC(=O)[C@H](Cc2c[nH]cn2)NC(=O)OC)[C@@H](C)O)[C@@H](C)O)C(=O)NC(CCCc2ccccc2F)C(N)=O)cc1 (single isomer, unassigned) [compound 208] | 5 ± 0.04 | 3 ± 0.15 | 1 ± 0.15 | 0 | 0 | 76 |  | 78 |  |  | 100 |  | 100 | 100 | 30 | (9) h | 30 | 30 | 
CCc1cc(OC)ccc1-c1ccc(CC(NC(=O)[C@H](CC(=O)O)NC(=O)[C@H](CO)NC(=O)[C@@H](NC(=O)C(C)(Cc2ccccc2F)NC(=O)[C@@H](NC(=O)CNC(=O)[C@H](CC(C(F)(F)F)C(F)(F)F)NC(=O)C(C)(C)NC(=O)[C@@H](N)Cc2c[nH]cn2)[C@H](C)O)[C@H](C)O)C(=S)NC(CCCc2ccccc2)C(N)=O)cc1 (stereo partly drawn) [compound 219] (H-H[Aib][Leu(5,5,5,5',5',5'-F6)]G[aThr][ξαMePhe(2-F)][aThr]SD-X3) |  |  |  |  |  | 00 | > 1440 | 00 | > 1440 |  | 00 |  | 00 | 33 |  |  | > 1440 | > 1440 | (5) h
CCc1cc(OC)ccc1-c1ccc(CC(NC(=O)[C@H](CC(=O)O)NC(=O)[C@H](CO)NC(=O)[C@@H](NC(=O)[C@H](Cc2ccccc2)NC(=O)[C@@H](NC(=O)CNC(=O)[C@H](CCC(N)=O)NC(=O)[C@H](CO)NC(=O)[C@@H](N)Cc2c[nH]cn2)[C@@H](C)O)[C@@H](C)O)C(=O)NC(CCCc2cccc(Cl)c2)C(N)=O)cc1 (stereo partly drawn) [compound 7] (H-HSQGTFTSD[ξBip(2'-Et-4'-OMe)][ξNva(5-(3-Cl-Ph))]-NH2) |  |  |  |  |  | 71 | 480 | 69 | 480 |  | 11 | (6) h | 43 | 77 | 120 |  | 420 |  | 
CCc1cc(OC)ccc1-c1ccc(CC(NC(=O)[C@H](CC(=O)O)NC(=O)[C@H](CO)NC(=O)[C@@H](NC(=O)C(C)(Cc2ccccc2F)NC(=O)[C@@H](NC(=O)CNC(=O)[C@H](CC(C(F)(F)F)C(F)(F)F)NC(=O)C(C)(C)NC(=O)[C@@H](N)Cc2c[nH]cn2)[C@@H](C)O)[C@@H](C)O)C(=O)NC(CCCc2ccccc2)C(N)=O)cc1 (stereo partly drawn) [compound 234] |  |  |  |  |  | 72 |  | 70 |  |  | 100 |  | 100 | 100 | 30 | (9) h | 30 | 30 | 
CCc1cc(OC)ccc1-c1ccc(CC(CNC(CCCc2ccccc2F)C(N)=O)NC(=O)[C@H](CC(=O)O)NC(=O)[C@H](CO)NC(=O)[C@@H](NC(=O)C(C)(Cc2ccccc2F)NC(=O)[C@@H](NC(=O)CNC(=O)[C@H](CC(C(F)(F)F)C(F)(F)F)NC(=O)C(C)(C)NC(=O)[C@@H](N)Cc2c[nH]cn2)[C@H](C)O)[C@H](C)O)cc1 (stereo partly drawn) [compound 214] (H-H[Aib][Leu(5,5,5,5',5',5'-F6)]G[aThr][ξαMePhe(2-F)][aThr]SD-X4) |  |  |  |  |  | 76 |  | 78 |  |  | 100 |  | 100 | 100 | 30 | (9) h | 30 | 30 | 
CCc1cc(OC)ccc1-c1ccc(CC(NC(=O)[C@H](CC(=O)O)NC(=O)[C@H](CO)NC(=O)[C@@H](NC(=O)[C@H](Cc2ccccc2)NC(=O)[C@@H](NC(=O)CNC(=O)[C@H](CCC(N)=O)NC(=O)C2(NC(=O)[C@@H](N)Cc3c[nH]cn3)CC2)[C@@H](C)O)[C@@H](C)O)C(=O)NC(CCCc2ccccc2Cl)C(N)=O)cc1 (stereo partly drawn) [compound 74] (H-H[Ac3c]QGTFTSD[ξBip(2'-Et-4'-OMe)][X2]-NH2) |  |  |  |  |  | 76 |  | 78 |  |  | 100 |  | 100 | 100 | 30 | (9) h | 30 | 30 | 

— US8883963B2 (Cadila Healthcare Limited, priority 2007, dated 2014)
